Data as given in patent US7378090B2, “Alleviation of the memory deficits and memory components of psychiatric dysfunctions by altering atypical PKM activity” (The Research Foundation of State University of New York, priority 2001, dated 2008).
“Also recorded” adds a separate entry of the source.

Assays:
CA1 pyramidal cells = conditions: sustained application of low concentrations; cited from earlier work
Drosophila [1] = assay: Olfactory-avoidance classical (Pavlovian) conditioning, memory after training; type: in vivo; conditions: for 24-h memory after massed training: wild-type flies fed 25, 50 or 100 μM chelerythrine in sucrose for 3 h, three cycles of massed training
Source text: In Drosophila, the best characterized assay for associative learning and memory is an odor-avoidance behavioral task (T. Tully, et al. J. Comp. Physiol. A157, 263-277 (1985) incorporated herein by reference). This classical (Pavlovian) conditioning involves exposing the flies to two odors (the conditioned stimuli, or CS), one at a time, in succession. During one of these odor exposures (the CS+), the flies are simultaneously subjected to electric shock (the unconditioned stimulus, or US), whereas exposure to the other odor (the CS−) lacks this negative reinforcement. Following training, the flies are then placed at a ‘choice point’, where the odors come from opposite directions, and expected to decide which odor to avoid. By convention, learning is defined as the fly's performance when testing occurs immediately after training. A single training trial produces strong learning: a typical response is that >90% of the flies avoid the CS+. Performance of wild-type flies from this single-cycle training decays over a roughly 24-hour period until flies once again distribute evenly between the two odors. Flies can also form long-lasting associative olfactory memories, but normally this requires repetitive training regimens.
Pavlovian learning and memory in Drosophila. To assess learning and memory in Drosophila, an olfactory-avoidance classical (Pavlovian) conditioning protocol was used. […] The performance index (PI) was calculated by subtracting the number of flies making the incorrect choice from those making the correct one, dividing by the total number of flies, and multiplying by 100. To avoid odor-avoidance biases, the PI of each single n was calculated by taking an average performance of two groups of flies, one group trained with the CS+ being OCT, the other with the CS+ being MCH. […]
(§1) A 4% (wt/vol) sucrose solution was used as a vehicle for the chelerythrine feeding. […] Feeding was monitored by placing 1/50 volume of green food coloring into the solutions, which could then be seen in the abdomens of flies after eating. […]

Drosophila [2] = assay: Olfactory-avoidance conditioning, learning (tested immediately after single-cycle training); type: in vivo; conditions: wild-type flies fed 100 μM chelerythrine for 3 h
Source text: In Drosophila, the best characterized assay for associative learning and memory is an odor-avoidance behavioral task (T. Tully, et al. J. Comp. Physiol. A157, 263-277 (1985) incorporated herein by reference). This classical (Pavlovian) conditioning involves exposing the flies to two odors (the conditioned stimuli, or CS), one at a time, in succession. During one of these odor exposures (the CS+), the flies are simultaneously subjected to electric shock (the unconditioned stimulus, or US), whereas exposure to the other odor (the CS−) lacks this negative reinforcement. […]
Pavlovian learning and memory in Drosophila. […] The performance index (PI) was calculated by subtracting the number of flies making the incorrect choice from those making the correct one, dividing by the total number of flies, and multiplying by 100. To avoid odor-avoidance biases, the PI of each single n was calculated by taking an average performance of two groups of flies, one group trained with the CS+ being OCT, the other with the CS+ being MCH.
as §1

PKMζ = target: T1, PKMζ (Homo sapiens, UniProt Q05513); conditions: cited from earlier work
T1 sequence (Q05513 1-409 isoform Q05513-2): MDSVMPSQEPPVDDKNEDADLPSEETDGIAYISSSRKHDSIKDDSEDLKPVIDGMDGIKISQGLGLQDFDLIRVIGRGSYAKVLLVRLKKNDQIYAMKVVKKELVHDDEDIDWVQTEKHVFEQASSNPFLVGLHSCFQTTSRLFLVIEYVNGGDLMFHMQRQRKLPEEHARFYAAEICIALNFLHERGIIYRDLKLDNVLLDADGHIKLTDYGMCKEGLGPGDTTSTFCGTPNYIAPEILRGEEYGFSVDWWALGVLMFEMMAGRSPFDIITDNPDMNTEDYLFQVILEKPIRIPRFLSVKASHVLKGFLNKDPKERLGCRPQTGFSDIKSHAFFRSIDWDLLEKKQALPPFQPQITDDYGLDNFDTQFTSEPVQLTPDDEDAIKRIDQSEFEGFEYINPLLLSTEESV

Drosophila [3] = conditions: cited from earlier work

COc1ccc2c(c[n+](C)c3c4cc5c(cc4ccc23)OCO5)c1OC [chelerythrine]
LTP maintenance (CA1 pyramidal cells): abolished | 24-h memory after massed training (Drosophila [1]): inhibited 24-hour memory formation in a dose-dependent manner | 24-h memory after massed training (Drosophila [1]; listed as Chelerythrine): inhibits 24-h memory after massed training in a dose-dependent manner | learning (Drosophila [2]): not different; also recorded: unaffected | inhibition of other PKC isotypes (PKMζ; higher concentrations): inhibits other PKC isotypes at higher concentrations | inhibition of PKMζ (PKMζ; low concentrations): selectively inhibit PKMζ at low concentrations

C[C@@H]1C[C@@H]([C@H](O)CC2CC(=O)NC(=O)C2)C(=O)[C@@H](C)C1 [cycloheximide]
anesthesia-resistant memory (ARM) (Drosophila [3]; massed or spaced training): insensitive | memory after spaced training of radish mutants (Drosophila [3]; radish mutants): completely blocked | long-term memory (LTM) (Drosophila [3]; spaced training): blocked

B1: FL-MaPKCζ: full-length (FL) mouse atypical PKCζ expressed from heat-shock transgene (protein, UniProt Q02956 1-592, looked up)
chain: MPSRTDPKMDRSGGRVRLKAHYGGDILITSVDAMTTFKDLCEEVRDMCGLHQQHPLTLKWVDSEGDPCTVSSQMELEEAFRLVCQGRDEVLIIHVFPSIPEQPGMPCPGEDKSIYRRGARRWRKLYRANGHLFQAKRFNRGAYCGQCSERIWGLSRQGYRCINCKLLVHKRCHVLVPLTCRRHMDSVMPSQEPPVDDKNDGVDLPSEETDGIAYISSSRKHDNIKDDSEDLKPVIDGVDGIKISQGLGLQDFDLIRVIGRGSYAKVLLVRLKKNDQIYAMKVVKKELVHDDEDIDWVQTEKHVFEQASSNPFLVGLHSCFQTTSRLFLVIEYVNGGDLMFHMQRQRKLPEEHARFYAAEICIALNFLHERGIIYRDLKLDNVLLDADGHIKLTDYGMCKEGLGPGDTTSTFCGTPNYIAPEILRGEEYGFSVDWWALGVLMFEMMAGRSPFDIITDNPDMNTEDYLFQVILEKPIRIPRFLSVKASHVLKGFLNKDPKERLGCRPQTGFSDIKSHAFFRSIDWDLLEKKQTLPPFQPQITDDYGLDNFDTQFTSEPVQLTPDDEDVIKRIDQSEFEGFEYINPLLLSAEESV
modifications: full-length
notes: full-length (FL) mouse atypical PKCζ expressed from heat-shock transgene
24-hour memory after single-cycle training (Drosophila [1]; transgene induced by 30-min 32° C. heat shock after training): not observed
